Results on 16 molecules are retold here after US7074743B1, “Herbicidal composition comprising 4-iodo-2-[3-(4-methoxy-6-methyl-1,3,5-triazin-2-yl)ureidosulfonyl]benzoic esters” (priority 1995, dated 2006).

Holding throughout (type): in vivo
The subject of data set [1] is Phalaris canariensis. Nature of the data set: Herbicidal action on PHACA, visual scoring vs untreated, post-emergence 2-4 leaf stage (greenhouse / field trials). How it is done: (§1) The examples given below were performed in the greenhouse and, in some cases, in field trials.
(§2) The herbicides, or combinations, were applied in cereals after the weeds had emerged naturally using plot sprayers. After application, the results, such as damage to the crop plants and effect on broad-leaved weeds/grass weeds were assessed by means of visual scoring. The herbicidal action was assessed qualitatively and quantitatively by comparing untreated and treated plots on the basis of the effect on plant growth and the development of chloroses and necroses down to the complete destruction of the weeds (0–100%). The application was effected when the crop plants and weeds were in the 2–4 leaf stage. The test was evaluated approximately 4 weeks after application.
(§3) In the greenhouse experiments, the crop plants and broadleaved weeds/grass weeds were grown in No. 13 pots and treated in the 2–4 leaf stage. The pots were subsequently placed in the greenhouse under good growth conditions (temperature, atmospheric humidity, water supply).
(§4) The assessments were carried out similarly to those in the field trials, i.e. visual scoring of the treated plants in comparison with untreated control variants. These assessments were carried out 3 weeks after applying the test preparations and their combinations. The experiments had been set up in two replications.
(§5) To assess the combination effects, the activities of the individual components were added and compared with the activity of the mixtures in equal doses. It was frequently observed that the efficacies of the combinations exceeded the total of the individual activities.
(§6) In cases with less clear effects, the expected value was calculated using Colby's formula and compared with the empirically determined result. The calculated efficacy of a combination which is expected in theory is determined is using S.R. Colby's formula: “Calculation of synergistic and antagonistic responses of herbicide combinations”, Weeds 15 (1967), pages 20 to 22.
(§7) [formula] where • X=% damage caused by herbicide A at a rate of ×kg a.i./ha; • Y=% damage caused by herbicide B at a rate of y kg a.i./ha; • Z=% damage caused by a further herbicide C at a rate of z kg a.i./ha; • E=expected value, i.e. expected damage caused by herbicides A+B (or A+B+C) at x+y (or x+y+z) kg a.i./ha.
(§8) Synergistic effects were assumed to be when the empirical value exceeded the expected value. In the case of combinations with individual components with the same active substances, comparisons via the total formula were also possible.

Data set [2] relates to Apera spica venti. In words: Herbicidal action on APESV, visual scoring vs untreated, post-emergence 2-4 leaf stage. The conditions noted are these: Table 1. How it is done: as §1, §2, §3, §4, §5, §6, §7, §8
The test system of data set [3] is Triticum aestivum. Nature of the data set: Damage to crop plant TRZAW, visual scoring vs untreated. The procedure:
as §1, §2, §3, §4

For data set [4], the system named is Lolium multiflorum. Nature of the data set: Herbicidal action on LOLMU, visual scoring vs untreated, post-emergence 2-4 leaf stage. The procedure: as §1, §2, §3, §4, §5, §6, §7, §8
The test system of data set [5] is Echinochloa crus galli. In words: Herbicidal action on ECHCR, visual scoring vs untreated, post-emergence 2-4 leaf stage. How it is done:
as §1, §2, §3, §4, §5, §6, §7, §8

Data set [6] has as its system Zea mays. Nature of the data set: Damage to crop plant ZEAMA, visual scoring vs untreated. The procedure:
as §1, §2, §3, §4

Data set [7] relates to Fallopia convolvulus. In words: Herbicidal action on FALCO, visual scoring vs untreated, post-emergence 2-4 leaf stage. How it is done: as §1, §2, §3, §4, §5, §6, §7, §8
In data set [8] the test system is Centaurea cyanus. Nature of the data set: Herbicidal action on CENCY, visual scoring vs untreated, post-emergence 2-4 leaf stage. How it is done: as §1, §2, §3, §4, §5, §6, §7, §8
Data set [9] deals with Secale cereale. In words: Damage to crop plant SECCW, visual scoring vs untreated. How it is done:
as §1, §2, §3, §4

Data set [10] relates to Gallium aparine. Nature of the data set: Herbicidal action on GALAP, visual scoring vs untreated, post-emergence 2-4 leaf stage. The conditions noted are these: Table 7. How it is done: as §1, §2, §3, §4, §5, §6, §7, §8
Data set [11] relates to Viola arvensis. In words: Herbicidal action on VIOAR, visual scoring vs untreated, post-emergence 2-4 leaf stage. To be noted: Table 7. The procedure: as §1, §2, §3, §4, §5, §6, §7, §8

Regarding `COC(=O)C(C)Oc1ccc(Oc2ccc(Cl)cc2Cl)cc1` (racemic) [B3), diclofop-methyl], the PHACA % control in [1] (Table 1, 225 g of a.i./ha) was found to be 0%; in [1] (Table 1, 450 g of a.i./ha) it was 0%; in [1] (Table 1, 900 g of a.i./ha), 0%. Also, the APESV % control in data set [2] (225 g of a.i./ha) is 0%; in data set [2] (450 g of a.i./ha), 0%; in data set [2] (900 g of a.i./ha) it was 8%. Also, the TRZAW % damage in data set [3] (Table 1, 225 g of a.i./ha) came out at 0%; in data set [3] (Table 1, 450 g of a.i./ha), 0%; in data set [3] (Table 1, 900 g of a.i./ha), 0%.
In the case of `CC(C)c1ccc(NC(=O)N(C)C)cc1` [B2), 3-(4-isopropylphenyl)-1,1-dimethylurea], the PHACA % control in data set [1] (Table 3, 375 g of a.i./ha) was found to be 0%; in [1] (Table 3, 750 g of a.i./ha), 0%; in data set [1] (Table 3, 1500 g of a.i./ha), 50%. In addition, in [3] (in vivo), the TRZAW % damage came to 0%. The LOLMU % control in [4] (Table 3, 375 g of a.i./ha) is on record as 0%; in [4] (Table 3, 750 g of a.i./ha), 0%; in data set [4] (Table 3, 1500 g of a.i./ha), 0%.
`COc1cc(OC)nc(NC(=O)NS(=O)(=O)c2ncccc2C(=O)N(C)C)n1` [B13), 1-(4,6-dimethoxypyrimidin-2-yl)-3-(3-dimethylcarbamoyl-2-pyridylsulfonyl)urea]: the ECHCR % control in data set [5] (Table 4, 15 g of a.i./ha) is 0%; in [5] (Table 4, 30 g of a.i./ha) it was 73%; in [5] (Table 4, 60 g of a.i./ha) it was 75%. Also, the ZEAMA % damage worked out at 0% in data set [6] (Table 4, 15 g of a.i./ha); 0% in data set [6] (Table 4, 30 g of a.i./ha); 2% in [6] (Table 4, 60 g of a.i./ha).
For the molecule `CCS(=O)(=O)c1cccnc1S(=O)(=O)NC(=O)Nc1nc(OC)cc(OC)n1` [B14), 1-(4,6-dimethoxypyrimidin-2-yl)-3-(3-ethylsulfonyl-2-pyridylsulfonyl) urea], the ECHCR % control in data set [5] (Table 4, 5 g of a.i./ha) was found to be 15%; in [5] (Table 4, 10 g of a.i./ha), 60%; in data set [5] (Table 4, 20 g of a.i./ha) it was 85%.
In the case of `Cc1cc(Cl)ccc1O[C@H](C)C(=O)O` [B16), (R)-2-(4-chloro-o-tolyloxy)propionic acid], the TRZAW % damage in [3] (Table 5, 125 g of a.i./ha) was determined as 0%; in data set [3] (Table 5, 250 g of a.i./ha), 0%; in data set [3] (Table 5, 500 g of a.i./ha) it was 0%; in [3] (Table 5, 1000 g of a.i./ha) it was 0%. The FALCO % control in data set [7] (Table 5, 125 g of a.i./ha) is reported as 0%; in data set [7] (Table 5, 250 g of a.i./ha), 15%; in data set [7] (Table 5, 500 g of a.i./ha), 55%; in [7] (Table 5, 1000 g of a.i./ha), 68%. The CENCY % control in [8] (Table 6, 600 g of a.i./ha) turned out to be 30%; in data set [8] (Table 6, 2500 g of a.i./ha) it was 70%. Moreover, the SECCW % damage is 0% in [9] (Table 6, 600 g of a.i./ha) and 0% in [9] (Table 6, 2500 g of a.i./ha).
On to `Cc1cc(Cl)ccc1OCC(=O)O` [B17), (4-chloro-2-methylphenoxy) acetic acid], for which the TRZAW % damage in data set [3] (Table 5, 250 g of a.i./ha) is 0%. For the same molecule, the FALCO % control in data set [7] (Table 5, 250 g of a.i./ha) is 0%; in [7] (Table 5, 500 g of a.i./ha), 68%; in data set [7] (Table 5, 1000 g of a.i./ha) it was 75%.
`COc1c(Cl)ccc(Cl)c1C(=O)O` [B20), 3,6-dichloro-o-anisic acid]: the LOLMU % control in [4] (Table 5, 50 g of a.i./ha) is listed as 5%; in [4] (Table 5, 100 g of a.i./ha), 10%; in data set [4] (Table 5, 200 g of a.i./ha), 18%; in data set [4] (Table 5, 400 g of a.i./ha) it was 40%.
Take `Nc1c(Cl)c(F)nc(OCC(=O)O)c1Cl` [B21), 4-amino-3,5-dichloro-6-fluoro-2-pyridyloxyacetic acid]: the FALCO % control is recorded as 73% in data set [7] (Table 5, 50 g of a.i./ha); 80% in data set [7] (Table 5, 100 g of a.i./ha); 95% in data set [7] (Table 5, 200 g of a.i./ha).
As to `N#Cc1cc(I)c(O)c(I)c1` [B22), 4-hydroxy-3,5-di-iodobenzonitrile], in data set [3] (in vivo), the TRZAW % damage amounted to 0%. The GALAP % control was 0% in [10] (62.5 g of a.i./ha), 3% in data set [10] (125 g of a.i./ha), 10% in [10] (250 g of a.i./ha) and 18% in data set [10] (500 g of a.i./ha).
Take `CCOC(=O)COC(=O)c1cc(Oc2ccc(C(F)(F)F)cc2Cl)ccc1[N+](=O)[O-]` [B25), fluoroglycofen-ethyl]: the TRZAW % damage in [3] (in vivo) was 0%. Further, the VIOAR % control in [11] (4 g of a.i./ha) was 3%; in data set [11] (8 g of a.i./ha), 18%; in data set [11] (15 g of a.i./ha) it was 38%; in data set [11] (30 g of a.i./ha) it was 62%.
For `O=C(Nc1ccc(F)cc1F)c1cccnc1Oc1cccc(C(F)(F)F)c1` [B32), 2′ 4′-difluoro-2-(α,α,α-trifluoro-m-tolyloxy)nicotinanilide], the TRZAW % damage amounted to 0% in data set [3] (Table 7, 13 g of a.i./ha); 0% in data set [3] (Table 7, 25 g of a.i./ha); 0% in data set [3] (Table 7, 50 g of a.i./ha); 0% in data set [3] (Table 7, 100 g of a.i./ha). Further, the GALAP % control in data set [10] (13 g of a.i./ha) was 0%; in data set [10] (25 g of a.i./ha), 0%; in [10] (50 g of a.i./ha) it was 5%; in data set [10] (100 g of a.i./ha), 5%.
As for `CCNc1nc(Cl)nc(NC(C)C)n1` [B36), 6-chloro-N-^2-ethyl-N-4-isopropyl-1,3,5-triazine-2,4-diamine], the ECHCR % control in [5] (Table 8, 375 g of a.i./ha) came out at 0%; in [5] (Table 8, 750 g of a.i./ha) it was 0%; in [5] (Table 8, 1500 g of a.i./ha) it was 3%; in data set [5] (Table 8, 3000 g of a.i./ha), 3%. Besides, the ZEAMA % damage in data set [6] (Table 8, 375 g of a.i./ha) was determined as 0%; in data set [6] (Table 8, 750 g of a.i./ha), 0%; in data set [6] (Table 8, 1500 g of a.i./ha), 0%; in data set [6] (Table 8, 3000 g of a.i./ha), 0%.
On to `COc1cc(OC)nc(NC(=O)NS(=O)(=O)N(C)S(C)(=O)=O)n1` [B40), 1-(4,6-dimethoxypyrimidin-2-yl)-3-mesyl (methyl)-sulfamoylurea], for which, in data set [8] (Table 10, 20 g of a.i./ha), the CENCY % control turned out to be 25%. For the same molecule, in data set [9] (Table 10, 20 g of a.i./ha), the SECCW % damage stood at 0%.
Take `COC(=O)c1ccccc1S(=O)(=O)NC(=O)Nc1nc(C)nc(OC)n1` [B41), metsulfuron-methyl]: the TRZAW % damage is on record as 0% in data set [3] (Triticum aestivum, in vivo) and 0% in data set [3] (in vivo). The CENCY % control in [8] (Table 9, 1 g of a.i./ha) was found to be 0%; in [8] (Table 9, 3 g of a.i./ha), 0%; in data set [8] (Table 9, 5 g of a.i./ha), 0%; in data set [8] (Table 9, 10 g of a.i./ha), 0%.
For the molecule `COC(=O)c1ccccc1S(=O)(=O)NC(=O)N(C)c1nc(C)nc(OC)n1` [B42), tribenuron-methyl], in data set [3] (Triticum aestivum, in vivo), the TRZAW % damage amounted to 0%. Also, the FALCO % control in [7] (Table 9, 5 g of a.i./ha) was determined as 88%; in data set [7] (Table 9, 10 g of a.i./ha), 93%; in data set [7] (Table 9, 20 g of a.i./ha), 95%; in data set [7] (Table 9, 40 g of a.i./ha) it was 97%.
Regarding imazamethabenz-methyl [B8)], the PHACA % control in [1] (Table 3, 375 g of a.i./ha) was found to be 0%; in [1] (Table 3, 750 g of a.i./ha) it was 0%; in data set [1] (Table 3, 1500 g of a.i./ha), 13%. In addition, the LOLMU % control is given as 0% in [4] (Table 3, 375 g of a.i./ha); 0% in data set [4] (Table 3, 750 g of a.i./ha); 20% in [4] (Table 3, 1500 g of a.i./ha).
